Test results: patent US8759033B2, “CSNR-deficient actinobacteria for the production of an enzyme having chitosanase activity” (Socpra Sciences et Genie S.E.C., priority 2012, dated 2014)

Experiments:
CsnR [1] = biological target: T1, CsnR (Streptomyces lividans, UniProt A0ABN4DYL3); assay: EMSA sugar binding assay: interference with CsnR binding to csnA-WT operator; details: for effect on CsnR binding to operator (summary statement): equilibrium competition experiment and IC50 determination; for effect on gel shift pattern of CsnR with csnA-WT operator: saccharide at 500 nM, FIG. 9; for interference with CsnR binding to the csnA-WT probe: maximal tested concentration of 75 mM
T1 sequence (A0ABN4DYL3 entry or part of it): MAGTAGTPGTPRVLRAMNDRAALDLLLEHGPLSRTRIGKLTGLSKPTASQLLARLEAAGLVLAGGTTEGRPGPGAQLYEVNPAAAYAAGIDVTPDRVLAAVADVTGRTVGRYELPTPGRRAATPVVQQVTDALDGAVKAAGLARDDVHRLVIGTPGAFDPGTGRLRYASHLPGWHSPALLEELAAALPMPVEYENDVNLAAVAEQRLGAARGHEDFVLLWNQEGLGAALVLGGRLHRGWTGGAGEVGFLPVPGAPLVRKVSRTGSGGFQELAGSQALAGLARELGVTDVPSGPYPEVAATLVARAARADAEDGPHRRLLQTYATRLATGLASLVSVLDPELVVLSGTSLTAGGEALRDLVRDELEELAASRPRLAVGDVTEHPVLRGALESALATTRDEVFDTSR
Method: For the electrophoretic mobility shift assay (EMSA), pairs of complementary oligonucleotides were annealed, generating double-stranded oligonucleotides csnA-WT (wild type), csnA-M1, csnA-M2, csnA-MM, and csnR-WT (see Table 3). Fifty picomoles of double-stranded oligonucleotide was end labeled with ^[γ-32P]ATP (3,000 Ci/mmol) and 20 U of T4 polynucleotide kinase and purified on a G-25 column. DNA binding reaction mixtures (24 μl) contained 10 mM HEPES (pH 7.9), 10% glycerol, 0.2 mM EDTA, 0.5 mM phenylmethylsulfonyl fluoride (PMSF), 0.25 mM DTT, 1 μg poly(dI-dC), and 150 mM KCl. For equilibrium dissociation constant (KD) determination, various concentrations of labeled csnA-WT or csnR-WT probe (0.1 nM to 1.5 nM) and ˜8.5 pmol of purified CsnR were used. For the determination of the 50% inhibitory concentration (IC50) of the DNA competitors, 0.03 nM labeled csnA-WT probe and ˜8.5 pmol of CsnR were used with various concentrations of competitor double-stranded oligonucleotide (0.1 to 125 nM). For the sugar binding assay, ˜8.5 pmol of CsnR was preincubated with glucose, GlcNAc, galactosamine, GlcN, or chitosan oligosaccharides (GlcN)2 to ([…]) in the binding reaction mixture for 15 min on ice before the addition of labeled csnA-WT probe (0.03 nM). Reaction mixtures were incubated at room temperature for 15 min with the labeled probe and then subjected to electrophoresis at 4° C. in a prerun gel (15 min) of 6% polyacrylamide (10 mM Tris, 80 mM glycine, 0.4 mM EDTA [pH 8.3]). Following electrophoresis, gels were dried, and band intensities were visualized with a Phosphorlmager™ and estimated with ImageQuant™ software (version 5.2). All determinations were done in triplicate. KD calculations were done with the Michaelis-Menten nonlinear fit (least squares), and the one-site log IC50 nonlinear fit (least squares) was used for IC50 calculations (GraphPad Prism™ version 5.03 for Windows; GraphPad, San Diego, Calif.).

CsnR [2] = biological target: T1, CsnR; assay: EMSA equilibrium competition with DNA competitors against labeled csnA-WT probe; details: competitor double-stranded oligonucleotide 0.1 to 125 nM, 0.03 nM labeled csnA-WT probe, ~8.5 pmol CsnR, three independent experiments; read-out: IC50 (nM), effect of mutations in the operator sequence on CsnR binding
Method: For the electrophoretic mobility shift assay (EMSA), pairs of complementary oligonucleotides were annealed, generating double-stranded oligonucleotides csnA-WT (wild type), csnA-M1, csnA-M2, csnA-MM, and csnR-WT (see Table 3). Fifty picomoles of double-stranded oligonucleotide was end labeled with ^[γ-32P]ATP (3,000 Ci/mmol) and 20 U of T4 polynucleotide kinase and purified on a G-25 column. DNA binding reaction mixtures (24 μl) contained 10 mM HEPES (pH 7.9), 10% glycerol, 0.2 mM EDTA, 0.5 mM phenylmethylsulfonyl fluoride (PMSF), 0.25 mM DTT, 1 μg poly(dI-dC), and 150 mM KCl. For equilibrium dissociation constant (KD) determination, various concentrations of labeled csnA-WT or csnR-WT probe (0.1 nM to 1.5 nM) and ˜8.5 pmol of purified CsnR were used. For the determination of the 50% inhibitory concentration (IC50) of the DNA competitors, 0.03 nM labeled csnA-WT probe and ˜8.5 pmol of CsnR were used with various concentrations of competitor double-stranded oligonucleotide (0.1 to 125 nM). For the sugar binding assay, ˜8.5 pmol of CsnR was preincubated with glucose, GlcNAc, galactosamine, GlcN, or chitosan oligosaccharides (GlcN)2 to (GlcN)5 at various concentrations (0.00075 to 75 mM) in the binding reaction mixture for 15 min on ice before the addition of labeled csnA-WT probe (0.03 nM). Reaction mixtures were incubated at room temperature for 15 min with the labeled probe and then subjected to electrophoresis at 4° C. in a prerun gel (15 min) of 6% polyacrylamide (10 mM Tris, 80 mM glycine, 0.4 mM EDTA [pH 8.3]). Following electrophoresis, gels were dried, and band intensities were visualized with a Phosphorlmager™ and estimated with ImageQuant™ software (version 5.2). All determinations were done in triplicate. KD calculations were done with the Michaelis-Menten nonlinear fit (least squares), and the one-site log IC50 nonlinear fit (least squares) was used for IC50 calculations (GraphPad Prism™ version 5.03 for Windows; GraphPad, San Diego, Calif.).

| Molecule | effect on CsnR binding to operator (summary statement) (CsnR [1]) | effect on gel shift pattern of CsnR with csnA-WT operator (CsnR [1]) | IC50 (CsnR [2]) [nM] | interference with CsnR binding to the csnA-WT probe (CsnR [1]) | effect on CsnR binding to operator (summary statement) (CsnR [1]; listed as (GlcN)2) |
| --- | --- | --- | --- | --- | --- |
| N[C@H]1C(O)O[C@H](CO)[C@@H](O)[C@@H]1O (stereo partly drawn) [GlcN, D-glucosamine] | impaired | strongly affected | – | – | – |
| csnA-M2: double-stranded oligonucleotide, csnA operator mutated at position +6, SEQ ID NO: 44 (DNA CCTCTTCTGGTAGGAAACTTTCCGATCAGT; double-stranded, further chemistry not given here) | – | – | 2.7 | – | – |
| N[C@H]1C(O)O[C@H](CO)[C@H](O)[C@@H]1O (stereo partly drawn) [galactosamine] | no effect | – | – | do not interfere | – |
| CC(=O)N[C@H]1C(O)O[C@H](CO)[C@@H](O)[C@@H]1O (stereo partly drawn) [GlcNAc, N-acetyl-D-glucosamine] | no effect | no effect | – | do not interfere | – |
| O=C[C@H](O)[C@@H](O)[C@H](O)[C@H](O)CO [glucose] | no effect | no effect | – | do not interfere | – |
| csnA-M1: double-stranded oligonucleotide, csnA operator mutated at position +2, SEQ ID NO: 43 (DNA CCTCTTCTGGTAGGAAACTGTCCTATCAGT; double-stranded, further chemistry not given here) | – | – | 52.1 | – | – |
| NC1C(OC2C(CO)OC(O)C(N)C2O)OC(CO)C(O)C1O (stereo not drawn) [chitosan dimer] | best effector | strongly affected | – | – | preferential CsnR ligand molecule |
| csnA-MM: double-stranded oligonucleotide, csnA operator doubly mutated at +2 and +6, SEQ ID NO: 45 (CCTCTTCTGGTAGGAAACTGTCCGATCAGT; double-stranded, further chemistry not given here) | – | – | 105 | – | – |
| csnA-WT: double-stranded oligonucleotide, wild-type csnA operator, SEQ ID NO: 42 (CCTCTTCTGGTAGGAAACTTTCCTATCAGT; double-stranded, further chemistry not given here) | – | – | 1.3 | – | – |
| NC1C(OC2C(CO)OC(OC3C(CO)OC(OC4C(CO)OC(OC5C(CO)OC(O)C(N)C5O)C(N)C4O)C(N)C3O)C(N)C2O)OC(CO)C(O)C1O (stereo not drawn) [chitosan pentamer] | – | strongly affected | – | – | – |
